Assay results reported in PubChem BioAssay (NCI).
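Values below derive from 48-hour exposures of cells grown in 96-well plates, with endpoints linearly interpolated between the two concentrations bracketing the appropriate inhibition level. GI50 is the concentration that inhibits growth by half. TGI marks complete inhibition of growth.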

Key:
Assay in all cases: DTP human tumour cell line panel, 48 h
NCI-H226 lung = system: NCI-H226 lung
NCI-H23 lung = system: NCI-H23 lung
NCI-H460 lung = system: NCI-H460 lung
NCI-H522 lung = system: NCI-H522 lung
NCI/ADR-RES ovarian = system: NCI/ADR-RES ovarian
OVCAR-3 ovarian = system: OVCAR-3 ovarian
OVCAR-4 ovarian = system: OVCAR-4 ovarian
OVCAR-5 ovarian = system: OVCAR-5 ovarian
OVCAR-8 ovarian = system: OVCAR-8 ovarian
PC-3 prostate = system: PC-3 prostate
SF-268 CNS = system: SF-268 CNS
SF-295 CNS = system: SF-295 CNS
SF-539 CNS = system: SF-539 CNS
SK-MEL-2 melanoma = system: SK-MEL-2 melanoma
SK-MEL-28 melanoma = system: SK-MEL-28 melanoma
SK-MEL-5 melanoma = system: SK-MEL-5 melanoma
SK-OV-3 ovarian = system: SK-OV-3 ovarian
SN12C renal = system: SN12C renal
SNB-19 CNS = system: SNB-19 CNS
SNB-75 CNS = system: SNB-75 CNS
SR leukemia = system: SR leukemia
SW-620 colon = system: SW-620 colon
T-47D breast = system: T-47D breast
TK-10 renal = system: TK-10 renal
U251 CNS = system: U251 CNS
UACC-257 melanoma = system: UACC-257 melanoma
UACC-62 melanoma = system: UACC-62 melanoma
UO-31 renal = system: UO-31 renal

COc1cc(NC(C)CCCN2C(=O)c3ccccc3C2=O)c2ncccc2c1OC (stereo unspecified)
GI50 (NCI-H226 lung): 33.3 µM | TGI (NCI-H226 lung): > 100 µM | GI50 (NCI-H23 lung): 26.3 µM | TGI (NCI-H23 lung): > 100 µM | GI50 (NCI-H460 lung): 35.5 µM | TGI (NCI-H460 lung): > 100 µM | GI50 (NCI-H522 lung): 35.4 µM | TGI (NCI-H522 lung): > 100 µM | GI50 (NCI/ADR-RES ovarian): 24 µM | TGI (NCI/ADR-RES ovarian): > 100 µM | GI50 (OVCAR-3 ovarian): 25.8 µM | TGI (OVCAR-3 ovarian): > 100 µM | GI50 (OVCAR-4 ovarian): 11.8 µM | TGI (OVCAR-4 ovarian): > 100 µM | GI50 (OVCAR-5 ovarian): 82.6 µM | TGI (OVCAR-5 ovarian): > 100 µM | GI50 (OVCAR-8 ovarian): 34.9 µM | TGI (OVCAR-8 ovarian): > 100 µM | GI50 (PC-3 prostate): 24.9 µM | TGI (PC-3 prostate): 71.1 µM | GI50 (SF-268 CNS): 55.7 µM | TGI (SF-268 CNS): > 100 µM | GI50 (SF-295 CNS): 21.1 µM | TGI (SF-295 CNS): 86.5 µM | GI50 (SF-539 CNS): 78 µM | TGI (SF-539 CNS): > 100 µM | GI50 (SK-MEL-2 melanoma): 29 µM | TGI (SK-MEL-2 melanoma): > 100 µM | GI50 (SK-MEL-28 melanoma): 37.8 µM | TGI (SK-MEL-28 melanoma): > 100 µM | GI50 (SK-MEL-5 melanoma): 16.5 µM | TGI (SK-MEL-5 melanoma): 30.1 µM | GI50 (SK-OV-3 ovarian): > 100 µM | TGI (SK-OV-3 ovarian): > 100 µM | GI50 (SN12C renal): 66.9 µM | TGI (SN12C renal): > 100 µM | GI50 (SNB-19 CNS): 67.7 µM | TGI (SNB-19 CNS): > 100 µM | GI50 (SNB-75 CNS): 54.4 µM | TGI (SNB-75 CNS): > 100 µM | GI50 (SR leukemia): 23.7 µM | TGI (SR leukemia): > 100 µM | GI50 (SW-620 colon): 35.3 µM | TGI (SW-620 colon): > 100 µM | GI50 (T-47D breast): 35.7 µM | TGI (T-47D breast): > 100 µM | GI50 (TK-10 renal): 40.5 µM | TGI (TK-10 renal): > 100 µM | GI50 (U251 CNS): 46.8 µM | TGI (U251 CNS): > 100 µM | GI50 (UACC-257 melanoma): 40.6 µM | TGI (UACC-257 melanoma): > 100 µM | GI50 (UACC-62 melanoma): 35.9 µM | TGI (UACC-62 melanoma): > 100 µM | GI50 (UO-31 renal): 36.7 µM | TGI (UO-31 renal): > 100 µM
